Measured values from ChEMBL document CHEMBL3856277, “Design, synthesis, and activity evaluation of selective inhibitors of anti-apoptotic Bcl-2 proteins: The effects on the selectivity of the P1 pockets in the active sites” (Bioorg Med Chem Lett, 2016).

What was measured:
[1] = target: Induced myeloid leukemia cell differentiation protein Mcl-1 (Homo sapiens, UniProt Q07820); assay: Inhibition of 5-FAM-Bid peptide binding to MCL-1 (unknown origin) by fluorescence polarization assay
Bcl-2-like protein 1 = Bcl-2-like protein 1 (Homo sapiens, UniProt Q07817); assay: Inhibition of 5-FAM-Bid peptide binding to Bcl-XL (unknown origin) by fluorescence polarization assay
Chain of Bcl-2-like protein 1 (Q07817 whole entry): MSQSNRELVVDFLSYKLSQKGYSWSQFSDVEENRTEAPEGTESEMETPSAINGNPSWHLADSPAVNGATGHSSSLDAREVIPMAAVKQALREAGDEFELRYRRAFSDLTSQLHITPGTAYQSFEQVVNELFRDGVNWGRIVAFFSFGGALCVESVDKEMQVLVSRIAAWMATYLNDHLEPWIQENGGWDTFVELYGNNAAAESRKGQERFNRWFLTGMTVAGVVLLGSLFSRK

Homo sapiens [2] = organism: Homo sapiens; assay: Selectivity index, ratio of Ki for Bcl-2 (unknown origin) to Ki for MCL-1 (unknown origin)
Homo sapiens [3] = organism: Homo sapiens; assay: Selectivity index, ratio of Ki for Bcl-2 (unknown origin) to Ki for Bcl-XL (unknown origin)
[4] = target: Apoptosis regulator Bcl-2 (Homo sapiens, UniProt P10415); assay: Inhibition of 5-FAM-Bid peptide binding to Bcl-2 (unknown origin) by fluorescence polarization assay
Chain of Apoptosis regulator Bcl-2 (P10415 whole entry): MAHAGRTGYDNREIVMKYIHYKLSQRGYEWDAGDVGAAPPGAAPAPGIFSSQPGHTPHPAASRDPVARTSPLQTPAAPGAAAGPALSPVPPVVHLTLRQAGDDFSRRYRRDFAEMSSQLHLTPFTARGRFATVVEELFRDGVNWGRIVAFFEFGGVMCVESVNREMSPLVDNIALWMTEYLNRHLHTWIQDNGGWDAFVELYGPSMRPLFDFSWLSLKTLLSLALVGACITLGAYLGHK

[5] = Growth inhibition of human NCI-H23 cells after 72 hrs by MTT assay; type: functional, cell-based; conditions: NCI-H23, 72 h
[6] = Growth inhibition of human SKOV3 cells after 72 hrs by MTT assay; type: functional, cell-based; conditions: SK-OV-3, 72 h
[7] = Growth inhibition of human HL60 cells after 72 hrs by MTT assay; type: functional, cell-based; conditions: HL-60, 72 h
[8] = Growth inhibition of human U266 cells after 72 hrs by MTT assay; type: functional, cell-based; conditions: U-266, 72 h
[9] = Growth inhibition of human MCF7 cells after 72 hrs by MTT assay; type: functional, cell-based; conditions: MCF7, 72 h

Chain of Induced myeloid leukemia cell differentiation protein Mcl-1 (Q07820 whole entry): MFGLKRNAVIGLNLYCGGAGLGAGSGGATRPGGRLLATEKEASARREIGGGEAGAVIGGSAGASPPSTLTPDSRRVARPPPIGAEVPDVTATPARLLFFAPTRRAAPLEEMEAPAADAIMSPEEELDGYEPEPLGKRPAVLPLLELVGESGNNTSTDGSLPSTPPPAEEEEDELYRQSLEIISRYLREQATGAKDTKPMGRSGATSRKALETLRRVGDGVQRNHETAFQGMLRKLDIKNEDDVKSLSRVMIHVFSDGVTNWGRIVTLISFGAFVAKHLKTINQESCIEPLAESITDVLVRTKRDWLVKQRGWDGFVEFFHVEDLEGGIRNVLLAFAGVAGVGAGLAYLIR

SMILES	Ki [1]	Ki (Bcl-2-like protein 1)	Ratio Ki (Homo sapiens [2])	Ratio Ki (Homo sapiens [3])	Ki [4]	IC50 [5]	IC50 [6]	IC50 [7]	IC50 [8]	IC50 [9]
Cc1cc2c(C(C)C)c(O)c(O)c(C=O)c2c(O)c1-c1c(C)cc2c(C(C)C)c(O)c(O)c(C=O)c2c1O [GOSSYPOL]	0.64 µM									
O=C(NS(=O)(=O)c1ccc(NCCSc2ccccc2)c([N+](=O)[O-])c1)c1ccc(C(=O)c2ccccc2)cc1	4 µM	0.33 µM	1	10	3.4 µM					
O=C(/C=C/c1ccccc1Cl)Nc1ccc(C(=O)NS(=O)(=O)c2ccc(NCCSc3ccccc3)c([N+](=O)[O-])c2)cc1	14 µM	0.12 µM	< 1	5	0.6 µM					
O=C(Cc1ccccc1)Nc1ccc(C(=O)NS(=O)(=O)c2ccc(NCCSc3ccccc3)c([N+](=O)[O-])c2)cc1	5.6 µM	0.45 µM	1	9	4 µM					
COc1cccc(/C=C/C(=O)Nc2ccc(C(=O)NS(=O)(=O)c3ccc(NCCSc4ccccc4)c([N+](=O)[O-])c3)cc2)c1	0.8 µM	0.11 µM	2	17	1.9 µM					
O=C(/C=C/c1cccc(Cl)c1)Nc1ccc(C(=O)NS(=O)(=O)c2ccc(NCCSc3ccccc3)c([N+](=O)[O-])c2)cc1	1.3 µM	0.29 µM	1	4	1.3 µM					
C=C(c1ccc(C(=O)Nc2ccc(C(=O)NS(=O)(=O)c3ccc(NCCSc4ccccc4)c([N+](=O)[O-])c3)cc2)cc1)c1cc2c(cc1C)C(C)(C)CCC2(C)C	0.29 µM	> 20 µM	11	< 1	3.1 µM	8.38 µM	7.83 µM	2.92 µM	6.95 µM	0.26 µM
O=C(/C=C/c1ccccc1)Nc1ccc(C(=O)NS(=O)(=O)c2ccc(NCCSc3ccccc3)c([N+](=O)[O-])c2)cc1	1.6 µM	0.14 µM	3	35	4.9 µM					
COc1ccccc1/C=C/C(=O)Nc1ccc(C(=O)NS(=O)(=O)c2ccc(NCCSc3ccccc3)c([N+](=O)[O-])c2)cc1	8.6 µM	0.09 µM	< 1	8	0.72 µM					
C=C(c1ccc(C(=O)NS(=O)(=O)c2ccc(NCCSc3ccccc3)c([N+](=O)[O-])c2)cc1)c1cc2c(cc1C)C(C)(C)CCC2(C)C	0.06 µM	> 20 µM	70	< 1	4.2 µM	7.4 µM	7.64 µM	4.86 µM	7.63 µM	2.25 µM
O=C(/C=C/c1ccc(C(F)(F)F)cc1)Nc1ccc(C(=O)NS(=O)(=O)c2ccc(NCCSc3ccccc3)c([N+](=O)[O-])c2)cc1	1.7 µM	0.51 µM	1	4	2 µM					
Cc1ccccc1/C=C/C(=O)Nc1ccc(C(=O)NS(=O)(=O)c2ccc(NCCSc3ccccc3)c([N+](=O)[O-])c2)cc1	0.83 µM	0.21 µM	2	8	1.7 µM					
O=C(/C=C/c1ccccc1C(F)(F)F)Nc1ccc(C(=O)NS(=O)(=O)c2ccc(NCCSc3ccccc3)c([N+](=O)[O-])c2)cc1	0.66 µM	0.17 µM	3	10	1.7 µM					
COc1ccc(/C=C/C(=O)Nc2ccc(C(=O)NS(=O)(=O)c3ccc(NCCSc4ccccc4)c([N+](=O)[O-])c3)cc2)cc1	0.59 µM	0.07 µM	2	19	1.3 µM					
O=C(/C=C/c1cccc(C(F)(F)F)c1)Nc1ccc(C(=O)NS(=O)(=O)c2ccc(NCCSc3ccccc3)c([N+](=O)[O-])c2)cc1	5.4 µM	0.29 µM	< 1	9	2.6 µM					
O=C(CCc1ccccc1)Nc1ccc(C(=O)NS(=O)(=O)c2ccc(NCCSc3ccccc3)c([N+](=O)[O-])c2)cc1	6.9 µM	0.32 µM	1	14	4.4 µM					
Cc1ccc(/C=C/C(=O)Nc2ccc(C(=O)NS(=O)(=O)c3ccc(NCCSc4ccccc4)c([N+](=O)[O-])c3)cc2)cc1	0.63 µM	0.13 µM	2	12	1.5 µM					
O=C(/C=C/c1ccc(Cl)cc1)Nc1ccc(C(=O)NS(=O)(=O)c2ccc(NCCSc3ccccc3)c([N+](=O)[O-])c2)cc1	2.7 µM	0.21 µM	< 1	5	1.1 µM					
O=C(Nc1ccc(C(=O)NS(=O)(=O)c2ccc(NCCSc3ccccc3)c([N+](=O)[O-])c2)cc1)c1ccccc1	6.7 µM	0.63 µM	< 1	3	1.7 µM					
Cc1cccc(/C=C/C(=O)Nc2ccc(C(=O)NS(=O)(=O)c3ccc(NCCSc4ccccc4)c([N+](=O)[O-])c3)cc2)c1	0.44 µM	0.16 µM	4	11	1.7 µM					
CN(C)CC[C@H](CSc1ccccc1)Nc1ccc(S(=O)(=O)NC(=O)c2ccc(N3CCN(Cc4ccccc4-c4ccc(Cl)cc4)CC3)cc2)cc1[N+](=O)[O-] [ABT 737]						71.2 µM	46.6 µM	0.97 µM	27.4 µM	25.3 µM
